# Measurements taken from patent US10849867B2, “Methods and compositions for treating conditions associated with an abnormal inflammatory response” (First Wave Bio, Inc., priority 2015, dated 2020).
# Experiments:
# TNBS-induced colitis = test: TNBS colitis in mice, niclosamide suspension administered rectally as enema (Example 9); type: in vivo, male Balb/c mice
# Source text: Model: Intra-rectal administration of trinitrobenzene sulfonic acid (TNBS) to mice results in colitis. TNBS elicits cell-mediated immune responses and induces transmural inflammation in the gut with morphological and histopathological features similar to those of human inflammatory bowel disease. TNBS induces diffuse colonic inflammation, characterized by increased leukocyte infiltration, edema, and ulceration. It is very well reported that administration of TNBS is associated with predominant activation of Th1-mediated immune response manifested by increased cytokines such as interferon-γ (IFN-γ), tumor necrosis factor-α (TNF-α) and interleukin-17A (IL-17A) as well as dense infiltration of CD4+ T cells. Disease activity in the TNBS model can be determined by loss of body weight, histopathological evaluation of the colon showing evidence of inflammatory damage and evidence of pro-inflammatory cytokines detected in colon tissue. Animals and Treatments: Studies of TNBS colitis were performed in 8- to 12-week-old male Balb/c mice (Jackson Laboratories, stock number 000651). […] Weight changes were recorded daily and tissues were collected for histologic study and RNA analysis at the end of the study. […] Gene expression was calculated using the ΔΔCt algorithm.
# human LPMCs T cells = test: Pro-inflammatory cytokine producing LPMC T cells, intracellular staining flow cytometry (Example 10); type: cell-based; settings: 5 μM, 24 h, relative to vehicle only negative control
# Source text: Model: Lamina propria mononuclear cells (LPMC) in the human intestine are comprised in part by T cells which mediate pathological processes including inflammatory bowel disease. LPMCs can be isolated from human intestine tissue biopsies. After isolation […] cells remain viable ex vivo under appropriate culture conditions for periods of time that allow ex vivo experiments. These cells can be used to investigate if test agents affect their production of pro-inflammatory cytokines including interferon-gamma (IFN), tumor necrosis factor-alpha (TNF) and interleukin 17A (IL-17A), to determine if a test agent affects the pro-inflammatory cytokines that mediate inflammatory bowel disease, including UC. Cell Isolation and Culture: Cells were obtained from colon biopsy specimens of a human from areas with moderate to severe UC. For the isolation of lamina propria mononuclear […] specimens were initially washed in Hank's balanced salt solution (HBSS) then cut into 0.5-cm pieces, and incubated with stirring in pre-warmed HBSS containing 1 mM DTT at 37° C. for 15 minutes. The supernatant was removed and the sample washed with stirring with HBSS for 5 minutes twice. Samples were incubated with stirring in pre-warmed HBSS containing 5 mM EDTA for 30 minutes. The supernatant was removed and the sample washed with stirring with HBSS for 5 minutes three times. The tissue was then digested further in RPMI 1640 containing 2 mg/ml Liberase and 0.01 ug/ml DNase I for 1 hours at 37° C. with stirring. After digestion, the mononuclear cells in suspension were collected and centrifuged at 400 g for 10 minutes. After two washings in HBS, the pellet was resuspended in a 40% Percoll solution and layered on the top of a Percoll solution (100%, 60%, 40%, and 30% Percoll in HBSS). The tube was centrifuged at 400 g for 25 minutes, and LPMCs at the 60%-40% Percoll layer interface were collected. The isolated cells were counted and checked for viability using 0.1% trypan blue (viability ranged from 86% to 94%). […]
compound,measurement,setting,value
"O=C(Nc1ccc([N+](=O)[O-])cc1Cl)c1cc(Cl)ccc1O [Niclosamide, 5-chloro-N-(2-chloro-4-nitrophenyl)-2-hydroxybenzamide]",body weight,"TNBS-induced colitis; rectal 30 mg/kg on days 1 and 2, TNBS-induced colitis",recovery of body weight
same,colitis score (H&E analysis of colon biopsies),"TNBS-induced colitis; rectal 30 mg/kg on days 1 and 2, compared to vehicle control or TNBS only",significantly lower
same,human LPMCs T cells that produce IFN,human LPMCs T cells,decrease
same,human LPMCs T cells that produce IL-17A,human LPMCs T cells,decrease
same,human LPMCs T cells that produce TNF,human LPMCs T cells,decrease
